Measurements: patent publication US20250099420A1, “SMALL MOLECULE MODULATORS OF GPR139 COMPLEX” (University of Florida Research Foundation, Incorporated, priority 2022, published 2025)
Where two headings read alike, the source gives them in different places.

Tests used:
parental HEK cells = experiment: HEK parental Agonist Counterscreen Assay (non-transfected cells); format: cell-based; details: for Averaged Max % Response (±St. Dev.): activity relative to known control
Text: The high control for the agonist counterscreen was Forskolin not acetylcholine.

GPR139 = biological target: T1, GPR139 (Homo sapiens, UniProt Q6DWJ6); experiment: GPR139 Agonist titration / agonist counterscreen assay (calcium detection, HEK-GPR139 cells); format: cell-based; parameters: expressed in transfected cells; host or cells: HEK Aequorin cells, Maxcyte transient transfection; details: GPR139 Agonist Activity; for Averaged Max % Response (±St. Dev.): activity relative to known control; for EC50: read-out: EC50
T1 sequence (Q6DWJ6 1-353): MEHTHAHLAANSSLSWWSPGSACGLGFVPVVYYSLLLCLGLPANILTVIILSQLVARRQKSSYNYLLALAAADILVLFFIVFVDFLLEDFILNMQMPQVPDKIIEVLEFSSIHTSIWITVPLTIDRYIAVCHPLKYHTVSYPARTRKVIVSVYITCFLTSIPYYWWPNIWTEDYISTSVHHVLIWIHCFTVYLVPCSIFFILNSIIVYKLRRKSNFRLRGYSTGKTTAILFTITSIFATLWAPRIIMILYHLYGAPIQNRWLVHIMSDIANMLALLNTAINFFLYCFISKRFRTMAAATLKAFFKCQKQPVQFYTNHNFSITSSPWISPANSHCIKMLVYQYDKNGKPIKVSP
Procedure: GPR activity was assessed using a calcium detection assay. […] Negative control samples were treated with DMSO. […] Intracellular calcium was measured using Calcium 5.

[1] = HEK Agonist Activity section of Table 4 (parental HEK counterscreen)
[2] = values printed in E-notation without unit
[3] = Homo sapiens, HEK293, HEK Agonist Activity section of Table 4 (parental HEK counterscreen)
[4] = Homo sapiens, HEK293, HEK Agonist Activity, parental non-transfected HEK cells

Lipophilic Efficiency (logD) (parental HEK cells; HEK Agonist Activity section)	Lipophilic Efficiency (logP) (parental HEK cells; HEK Agonist Activity section)	Averaged Max % Response (±St. Dev.) (GPR139) [%]	Lipophilic Efficiency (logD) (GPR139; based on logD)	Lipophilic Efficiency (logP) (GPR139; based on logP)	Hill Slope (GPR139; fitted dose-response curve)	Efficiency Ligand (GPR139; ligand efficiency)	EC50 (GPR139; [2]) [µM]	Efficiency Ligand (GPR139)	Hill Slope (GPR139)	Lipophilic Efficiency (logD) (GPR139)	Lipophilic Efficiency (logP) (GPR139)	EC50 (GPR139; HEK-GPR139 cells) [µM]	Lipophilic Efficiency (logD) (parental HEK cells; HEK Agonist Activity)	Lipophilic Efficiency (logP) (parental HEK cells; HEK Agonist Activity)	SMILES	EC50 (parental HEK cells; [1]) [µM]	Averaged Max % Response (±St. Dev.) (parental HEK cells; HEK Agonist Activity section) [%]	EC50 (parental HEK cells; [3]) [µM]	Averaged Max % Response (±St. Dev.) (parental HEK cells; HEK Agonist Activity) [%]	EC50 (parental HEK cells; [4]) [µM]
1.80	1.80	99.14 ± 16.79	3.63	3.63	0.99	0.35	0.208								O=C(CN1CCN(Cc2ccc(F)cc2Cl)C1=O)NCc1ccccc1Cl [SR-01000125622]		−10.20 ± 10.64	> 14.1		
1.78	1.78	93.45 ± 21.44						0.31	0.88	3.27	3.27	0.46			COc1cc(C(=O)NNC(=O)CCc2c[nH]c3ccccc23)ccc1OC(C)C [SR-01000068919]		39.50 ± 8.66	> 14.2		
1.25	1.25	98.09 ± 3.30	3.69	3.69	0.31	0.41	0.051								COc1ccccc1-c1nnc(NC(=O)Cc2ccc(C)cc2C)o1 [SR-01000915644]		−2.94 ± 0.56	> 14.1		
2.07	2.07	99.92 ± 5.04						0.31	1.14	2.93	2.93	1.9			COC(=O)c1ccc(CNC(=O)Nc2ccc(-c3cn[nH]c3)cc2)cc1.O=C(O)C(F)(F)F [SR-00000005410]	> 14.1	7.35 ± 2.40			
		112.23 ± 25.44	4.43	4.43	0.32	0.50	0.0062						1.11	1.11	COc1ccc(CCNC(=O)COc2ccc(Cl)cc2Cl)cc1 [SR-01000412367]				5.28 ± 6.57	> 13
		103.66 ± 2.94	4.73	4.73	0.17	0.37	0.0405						2.18	2.18	CC1(c2ccc3ccccc3c2)NC(=O)C(CC(=O)NCc2ccco2)C1=O (centres unmarked) [SR-01000058120]				11.91 ± 6.77	> 14.3
2.65	2.65	100.90 ± 10.01						0.37	0.98	4.18	4.18	0.418			COc1cc(OC)cc(C(=O)NNC(=O)CCc2ccccc2)c1 [SR-01000359572]		6.12 ± 4.61	> 14.1		
0.64	0.64	99.13 ± 2.27	2.51	2.51	1.05	0.34	0.191								COc1ccc(CCNC(=O)c2cncc(-c3csc4ccccc34)c2)cc1 [SR-01000654639]	> 14	1.22 ± 5.69			

The next lines start with the compound.

SMILES	Lipophilic Efficiency (logD) (parental HEK cells; HEK Agonist Activity section)	Lipophilic Efficiency (logP) (parental HEK cells; HEK Agonist Activity section)	Averaged Max % Response (±St. Dev.) (GPR139) [%]	Lipophilic Efficiency (logD) (GPR139; based on logD)	Lipophilic Efficiency (logP) (GPR139; based on logP)	Hill Slope (GPR139; fitted dose-response curve)	Efficiency Ligand (GPR139; ligand efficiency)	EC50 (GPR139; [2]) [µM]	Efficiency Ligand (GPR139)	Hill Slope (GPR139)	Lipophilic Efficiency (logD) (GPR139)	Lipophilic Efficiency (logP) (GPR139)	EC50 (GPR139; HEK-GPR139 cells) [µM]	Lipophilic Efficiency (logD) (parental HEK cells; HEK Agonist Activity)	Lipophilic Efficiency (logP) (parental HEK cells; HEK Agonist Activity)	EC50 (parental HEK cells; [1]) [µM]	Averaged Max % Response (±St. Dev.) (parental HEK cells; HEK Agonist Activity section) [%]	EC50 (parental HEK cells; [3]) [µM]	Averaged Max % Response (±St. Dev.) (parental HEK cells; HEK Agonist Activity) [%]	EC50 (parental HEK cells; [4]) [µM]
Cc1cccnc1NC(=O)Cn1ncc2c1-c1ccccc1OC2 [SR-01000152365]	2.49	2.49	96.01 ± 17.34	4.77	4.77	0.99	0.42	0.073								> 14.1	18.44 ± 8.07			
Cc1cccc(COc2coc(COc3nccn3C)cc2=O)c1 [SR-01000916033]	2.68	2.68	104.22 ± 8.56	5.04	5.04	0.34	0.42	0.0619									25.93 ± 6.51	> 14.1		
O=C(CN1CCCc2ccccc21)NNC(=O)Nc1ccc(Cl)c(Cl)c1 [SR-01000029575]	1.09	1.08	96.54 ± 7.56	3.35	3.34	0.79	0.38	0.0781									7.49 ± 5.72	> 14.3		
O=C(NCCn1ccc2ccccc21)c1cccs1 [SR-01000124129]	1.77	1.77	84.79 ± 6.25	3.83	3.83	0.88	0.51	0.123									−9.08 ± 5.27	> 14.1		
Cc1cc(C)c2c(CC(=O)NNC(=O)COc3ccccc3)coc2c1 [SR-01000301649]	1.94	1.93	93.20 ± 6.78	3.92	3.92	0.91	0.37	0.145								> 14.1	14.38 ± 10.96			
O=C(CN1CCN(Cc2ccccc2Cl)C1=O)NC1CCCCCCC1 [SR-01000125462]	1.58	1.58	92.90 ± 12.57	3.53	3.53	1.38	0.37	0.159								> 14.1	6.02 ± 12.03			
C=C(CCc1cccc(CC)c1)C(C)C1CCC(Cc2ccccc2C)C1=C (centres unmarked) [SR-01000095280]			122.65 ± 11.25	6.68	6.68		0.41							2.38	2.38				25.01 ± 8.12	> 14.1
CC(NC(=O)c1ccc2c(c1)N(Cc1ccccc1)C(=O)C[S+]2[O-])c1ccccc1 (centres unmarked) [SR-01000129845]	1.95	1.95	98.04 ± 26.06	3.96	3.96	1.01	0.32	0.138								> 14.1	8.19 ± 5.50			
